Consider two molecules from patent publication US8080371B2, “Markers for addiction” (The Washington University, priority 2006, dated 2011).

For data set [1], the target named is T1, α4β2α5N398 nAChR heterologously expressed in HEK293T cells (Mus musculus, UniProt O70174+Q2MKA5+Q9ERK7, D397N).
T1 construct: expressed in transfected cells; host or cells: HEK293T
Briefly: cell-based. As for the experimental part:
(§1) HEK293T cells were maintained at 37° C. in a humidified, 5% CO2 environment in Dulbecco's modified Eagle's medium (high glucose, no pyruvate) (DMEM), 10% heat-inactivated fetal bovine serum and antibiotic/antimycotic (100 U/mL penicillin, 100 μg/mL streptomycin and 0.25 μg/mL amphotericin B). Culture reagents were purchased from either Biowhittaker (East Rutherford, N.J., USA) or Invitrogen (Carlsbad, Calif., USA).
(§2) Agonist-evoked changes in intracellular calcium was performed using an aequorin-based luminescence assay as previously described (Karadsheh et al., 2004). HEK293T cells were seeded onto six-well plates (1.5×10^6 cells/well) and were transfected the following day with plasmids (0.25 μg/well for each plasmid) containing a human codon-optimized aequorin cDNA (Vernon and Printen 2002), the mouse α4 and β2 cDNAs and either the wild-type mouse α5 cDNA (D398) or a mouse α5 cDNA in which D398 was mutated to N398. Transfection was performed using either the LipofectAmine Plus Reagent (Invitrogen) or Fugene HD transfection reagent (Roche, Indianapolis, Ind.) as recommended by the manufacturers. […]
(§3) For the epibatidine concentration-response curves, 50 μL of cells were added to each well of a 96-well opaque white plate and placed in a Victor3V plate reader (Perkin Elmer). Following a 1 second baseline read, 50 μl epibatidine was injected onto each sample and luminescence was recorded at 0.2 s intervals for 20 s immediately following the addition of agonist. At the completion of the agonist stimulation, 100 μL of a solution containing 0.1% Triton X-100 and 100 mM CaCl2 was injected into each well and luminescence was recorded for 5 s at 0.1 s intervals. In order to control for differences in cell number per well as well as variation in transfection efficiency and coelenterazine loading, agonist responses were normalized by dividing the maximal peak value for the agonist-stimulated luminescence (L) by the total peak luminescence value (Lmax) (maximal peak agonist-stimulated luminescence+maximal peak luminescence resulting from cell lysis in the presence of high calcium).

Data set [2] has as its system α4β2α5N398 nAChR heterologously expressed in HEK293T cells. Briefly: cell-based. The conditions noted are these: p<0.0005. Also noted: species or system mouse. As for the experimental part: as §1, §2, §3
Data set [3] has as its target T2, α4β2α5D398 nAChR heterologously expressed in HEK293T cells (Mus musculus, UniProt O70174+Q9ERK7).
T2 construct: expressed in transfected cells; host or cells: HEK293T
Briefly: Aequorin-based luminescence assay of agonist-evoked changes in intracellular calcium. The data set is classed as cell-based. On the procedure:
as §1
Agonist-evoked changes in intracellular calcium was performed using an aequorin-based luminescence assay as previously described (Karadsheh et al., 2004). […]
For the epibatidine concentration-response curves, 50 μL of cells were added to each well of a 96-well opaque white plate and placed in a Victor3V plate reader (Perkin Elmer). Following a 1 second baseline read, 50 μl epibatidine was injected onto each sample and luminescence was recorded at 0.2 s intervals for 20 s immediately following the addition of agonist. At the completion of the agonist stimulation, 100 μL of a solution containing 0.1% Triton X-100 and 100 mM CaCl2 was injected into each well and luminescence was recorded for 5 s at 0.1 s intervals. […]

The conditions of data set [4]: cigarette smoking, background statement; cited from earlier work.

T2 sequence (Q2MKA5 30-467): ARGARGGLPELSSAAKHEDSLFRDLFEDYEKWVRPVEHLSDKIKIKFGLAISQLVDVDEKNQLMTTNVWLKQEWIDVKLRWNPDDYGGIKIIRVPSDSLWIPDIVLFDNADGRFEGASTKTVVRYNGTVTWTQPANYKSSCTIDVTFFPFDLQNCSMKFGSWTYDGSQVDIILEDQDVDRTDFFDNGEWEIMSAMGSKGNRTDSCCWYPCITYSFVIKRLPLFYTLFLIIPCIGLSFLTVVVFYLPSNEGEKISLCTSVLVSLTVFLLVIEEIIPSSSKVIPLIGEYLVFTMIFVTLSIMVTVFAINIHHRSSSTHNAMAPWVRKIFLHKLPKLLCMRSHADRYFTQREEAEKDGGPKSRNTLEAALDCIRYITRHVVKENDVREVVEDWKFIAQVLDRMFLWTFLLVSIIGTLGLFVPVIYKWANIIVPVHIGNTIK
T2 sequence (Q9ERK7 26-501): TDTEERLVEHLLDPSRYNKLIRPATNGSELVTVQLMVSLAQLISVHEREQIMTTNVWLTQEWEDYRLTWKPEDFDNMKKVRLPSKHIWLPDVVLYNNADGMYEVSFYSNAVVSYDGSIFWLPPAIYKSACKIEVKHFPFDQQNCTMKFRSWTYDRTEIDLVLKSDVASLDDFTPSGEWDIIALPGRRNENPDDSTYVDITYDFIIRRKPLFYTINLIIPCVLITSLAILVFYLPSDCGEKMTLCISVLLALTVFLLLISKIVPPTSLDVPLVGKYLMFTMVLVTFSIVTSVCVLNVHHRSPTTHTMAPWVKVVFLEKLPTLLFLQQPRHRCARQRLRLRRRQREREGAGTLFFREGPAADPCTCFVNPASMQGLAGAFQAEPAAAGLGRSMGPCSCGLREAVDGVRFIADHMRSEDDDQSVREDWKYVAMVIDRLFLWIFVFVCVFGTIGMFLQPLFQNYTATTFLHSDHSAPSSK
T2 sequence (O70174 31-629): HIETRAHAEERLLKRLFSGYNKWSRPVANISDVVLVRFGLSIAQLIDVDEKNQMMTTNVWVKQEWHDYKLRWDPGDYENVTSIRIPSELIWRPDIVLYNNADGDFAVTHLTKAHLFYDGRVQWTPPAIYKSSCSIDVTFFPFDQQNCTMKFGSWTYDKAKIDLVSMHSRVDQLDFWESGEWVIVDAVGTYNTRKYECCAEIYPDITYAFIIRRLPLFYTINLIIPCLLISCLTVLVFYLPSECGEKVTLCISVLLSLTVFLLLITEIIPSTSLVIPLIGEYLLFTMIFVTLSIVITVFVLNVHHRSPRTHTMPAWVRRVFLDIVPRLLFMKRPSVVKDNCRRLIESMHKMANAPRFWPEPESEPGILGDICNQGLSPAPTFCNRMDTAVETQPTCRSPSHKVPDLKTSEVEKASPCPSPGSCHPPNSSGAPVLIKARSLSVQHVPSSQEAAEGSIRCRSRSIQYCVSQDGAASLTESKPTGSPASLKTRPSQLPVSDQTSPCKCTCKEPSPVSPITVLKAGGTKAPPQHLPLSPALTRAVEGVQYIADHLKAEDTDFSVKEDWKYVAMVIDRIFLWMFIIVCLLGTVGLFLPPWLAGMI
T1 sequence (Q2MKA5 30-467 D397N): as the sequence (Q2MKA5 30-467) above, with D368N counted along it
T1 sequence (O70174 31-629): as the sequence (O70174 31-629) above
T1 sequence (Q9ERK7 26-501): as the sequence (Q9ERK7 26-501) above

For the molecule `Clc1ccc(C2CC3CCC2N3)cn1` (stereo not drawn) [epibatidine], the EC50 came out at 0.0191 ± 0.0014 nM in data set [1] and 0.0259 ± 0.0015 nM in data set [3]. Further, the “maximal response to agonist per receptor” value in data set [1] (L/Lmax divided by fmol of nAChR per sample well, α4β2α5N398, mean ± SEM, N=12) came out at 0.356±0.022; in data set [3] (L/Lmax divided by fmol of nAChR per sample well, α4β2α5D398, mean ± SEM, N=12), 0.147±0.01. The “maximal response to agonist per receptor, α4β2α5N398 relative to α4β2α5D398” value in data set [2] was “over two-fold higher”.
Consider `CN1CCCC1c1cccnc1` (stereo not drawn) [nicotine], for which the “time to peak drug level in brain after inhalation” value in data set [4] is at most 10 s.
